# In patent publication US8415342B2, “Besifloxacin ophthalmic composition for the treatment or control of infection” (Bausch & Lomb Incorporated, priority 2008, dated 2013):
# Where two headings read alike, the source gives them in different places.
# What was measured:
# Format in all cases: cell-based
# Streptococcus pneumoniae = assay: MIC, CLSI broth microdilution, clinical isolates
# Haemophilus influenzae = assay: MIC, CLSI broth microdilution, clinical isolates; conditions: for MIC50 / MIC90: Haemophilus influenzae
# Anaerobic Bacteria = assay: MIC against anaerobic bacteria (Table 7)
# S. aureus = assay: MIC of clinical trial isolates, Studies 373, 433, 434; conditions: Staphylococcus aureus
# S. epidermidis = assay: as above; conditions: Staphylococcus epidermidis, read-out: MIC90
# Morganella morganii = assay: MIC, CLSI broth microdilution, clinical isolates; conditions: Morganella morganii (N = 51)
# Legionella pneumophila = assay: microbe, parasite or virus in culture
# Citrobacter koseri = assay: MIC, CLSI broth microdilution, clinical isolates; conditions: Citrobacter koseri (N = 100)
# Streptococcus agalactiae = assay: MIC, CLSI broth microdilution, clinical isolates; conditions: Streptococcus agalactiae (N = 100)
# Klebsiella oxytoca = assay: MIC, CLSI broth microdilution, clinical isolates; conditions: Klebsiella oxytoca (N = 50)
# [1] = tested on: Lancefield group C, F, G streptococci; assay: MIC, CLSI broth microdilution, clinical isolates; conditions: G streptococci (N = 50)
# [2] = tested on: Staphylococcus epidermidis; assay: MIC, CLSI broth microdilution, clinical isolates; conditions: for MIC50: Staphylococcus epidermidis
# [3] = tested on: Staphylococcus saprophyticus; assay: MIC, CLSI broth microdilution, clinical isolates; conditions: Staphylococcus saprophyticus (N = 101)
# [4] = tested on: Staphylococcus lugdunensis; assay: MIC, CLSI broth microdilution, clinical isolates; conditions: Staphylococcus lugdunensis (N = 15)
# Viridans streptococci = assay: MIC, CLSI broth microdilution, clinical isolates; conditions: Viridans streptococci (N = 156)
# Streptococcus pyogenes = assay: MIC, CLSI broth microdilution, clinical isolates; conditions: Streptococcus pyogenes (N = 101)
# [5] = tested on: Staphylococcus haemolyticus; assay: MIC, CLSI broth microdilution, clinical isolates; conditions: Staphylococcus haemolyticus (N = 101)
# Staphylococcus warneri = assay: MIC, CLSI broth microdilution, clinical isolates; conditions: Staphylococcus warneri (N = 50)
# Staphylococcus aureus = assay: MIC, CLSI broth microdilution, clinical isolates; conditions: for MIC50 / MIC90: Staphylococcus aureus
# Moraxella catarrhalis = assay: MIC, CLSI broth microdilution, clinical isolates; conditions: Moraxella catarrhalis (N = 101)
# Staphylococcus hominis = assay: MIC, CLSI broth microdilution, clinical isolates; conditions: Staphylococcus hominis (N = 50)
# [6] = Streptococcus pneumoniae (PISP, N = 2)
# [7] = Streptococcus pneumoniae (PRSP, N = 2)
# [8] = Streptococcus pneumoniae (PSSP, N = 31)
# [9] = Streptococcus pneumoniae (all phenotypes, N = 35)
# [10] = Haemophilus influenzae (all phenotypes, N = 40)
# [11] = Haemophilus influenzae (bla negative, N = 24)
# [12] = Haemophilus influenzae (bla positive, N = 16)
# [13] = Clostridium perfringens, Clostridium perfringens (N = 21)
# [14] = Staphylococcus epidermidis (CNS, N = 6)
# [15] = Staphylococcus epidermidis (CS, N = 9)
# [16] = Staphylococcus epidermidis (MSSE, N = 6)
# [17] = Staphylococcus epidermidis (all phenotypes, N = 15)
# [18] = Staphylococcus aureus (CNS, N = 16)
# [19] = Staphylococcus aureus (CS, N = 14)
# [20] = Staphylococcus aureus (all phenotypes, N = 30)
# [21] = MRSA, Staphylococcus aureus (MRSA, N = 11)
# [22] = MSSA, Staphylococcus aureus (MSSA, N = 19)
smiles,measurement,setting,value
COc1c(N2CCNC(C)C2)c(F)cc2c(=O)c(C(=O)O)cn(C3CC3)c12 (centres unmarked) [Gatifloxacin],% S,Streptococcus pneumoniae; [6],100.0%
same,MIC Range,Streptococcus pneumoniae; [6],0.25-0.25 μg/mL
same,% S,Streptococcus pneumoniae; [7],100.0%
same,MIC Range,Streptococcus pneumoniae; [7],0.12 to 0.25 µg/mL
same,% S,Streptococcus pneumoniae; [8],96.8%
same,MIC50,Streptococcus pneumoniae; [8],0.12 µg/mL
same,MIC90,Streptococcus pneumoniae; [8],0.25 µg/mL
same,MIC Range,Streptococcus pneumoniae; [8],0.015 to 4 µg/mL
same,% S,Streptococcus pneumoniae; [9],97.1%
same,MIC Range,Streptococcus pneumoniae; [9],0.015 to 4 µg/mL
same,MIC50,"Streptococcus pneumoniae; Streptococcus pneumoniae (all phenotypes, N = 35), read-out: MIC50",0.12 µg/mL
same,MIC90,"Streptococcus pneumoniae; Streptococcus pneumoniae (all phenotypes, N = 35), read-out: MIC90",0.25 µg/mL
same,% S,Haemophilus influenzae; [10],100.0%
same,MIC Range,Haemophilus influenzae; [10],≦0.004-0.015 μg/mL
same,% S,Haemophilus influenzae; [11],100.0%
same,MIC Range,Haemophilus influenzae; [11],≦0.004-0.015 μg/mL
same,% S,Haemophilus influenzae; [12],100.0%
same,MIC Range,Haemophilus influenzae; [12],≦0.004-0.015 μg/mL
same,MIC50,Haemophilus influenzae; [10],8 ng/mL
same,MIC90,Haemophilus influenzae; [10],8 ng/mL
same,MIC50,Haemophilus influenzae; [11],8 ng/mL
same,MIC90,Haemophilus influenzae; [11],8 ng/mL
same,MIC50,Haemophilus influenzae; [12],8 ng/mL
same,MIC90,Haemophilus influenzae; [12],8 ng/mL
same,MIC Range,Anaerobic Bacteria; Bacteroides fragilis (N = 20),1 to 16 µg/mL
same,MIC50,"Anaerobic Bacteria; Bacteroides fragilis, Bacteroides fragilis (N = 20), read-out: MIC50",2 µg/mL
same,MIC90,"Anaerobic Bacteria; Bacteroides fragilis, Bacteroides fragilis (N = 20), read-out: MIC90",4 µg/mL
same,MIC Range,Anaerobic Bacteria; Clostridium perfringens (N = 21),0.5 to 1 µg/mL
same,MIC50,Anaerobic Bacteria; [13],1 µg/mL
same,MIC90,Anaerobic Bacteria; [13],1 µg/mL
same,MIC50,"Anaerobic Bacteria; Cutibacterium acnes, Propionibacterium acnes (N = 21), read-out: MIC50",0.25 µg/mL
same,MIC90,"Anaerobic Bacteria; Cutibacterium acnes, Propionibacterium acnes (N = 21), read-out: MIC90",0.5 µg/mL
same,MIC50,"Anaerobic Bacteria; Fusobacterium spp. (N = 21), read-out: MIC50",1 µg/mL
same,MIC90,"Anaerobic Bacteria; Fusobacterium spp. (N = 21), read-out: MIC90",4 µg/mL
same,MIC50,"Anaerobic Bacteria; Prevotella spp. (N = 20), read-out: MIC50",8 µg/mL
same,MIC90,"Anaerobic Bacteria; Prevotella spp. (N = 20), read-out: MIC90",16 µg/mL
same,MIC Range,Anaerobic Bacteria; Propionibacterium acnes (N = 21),0.25 to 0.5 µg/mL
same,MIC90,"S. aureus; MRSA, S. aureus MRSA-CR, N 17, read-out: MIC90",> 8 µg/mL
same,MIC90,"S. aureus; MRSA, S. aureus MRSA-CS, N 9, read-out: MIC90 (due to limited isolates, highest MIC value is given)",0.25 µg/mL
same,MIC90,"S. aureus; MSSA, S. aureus MSSA-CR, N 17, read-out: MIC90",> 8 µg/mL
same,MIC90,"S. aureus; MSSA, S. aureus MSSA-CS, N 144, read-out: MIC90",0.25 µg/mL
same,MIC90,"S. epidermidis; MRSE, S. epidermidis MRSE-CR, N 24",> 8 µg/mL
same,MIC90,"S. epidermidis; MRSE, S. epidermidis MRSE-CS, N 27",0.25 µg/mL
same,MIC90,"S. epidermidis; S. epidermidis MSSE-CR, N 10",8 µg/mL
same,MIC90,"S. epidermidis; S. epidermidis MSSE-CS, N 50",0.25 µg/mL
same,% S,Morganella morganii,74.5%
same,MIC50,Morganella morganii,0.12 µg/mL
same,MIC90,Morganella morganii,> 8 µg/mL
same,MIC50,Legionella pneumophila; Legionella pneumophila,0.03 µg/mL
same,MIC90,Legionella pneumophila; Legionella pneumophila,0.06 µg/mL
same,MIC Range,Legionella pneumophila; Legionella pneumophila (N = 50),0.015 to 0.06 µg/mL
same,% S,Citrobacter koseri,99.0%
same,MIC50,Citrobacter koseri,0.015 µg/mL
same,MIC90,Citrobacter koseri,0.12 µg/mL
same,% S,Streptococcus agalactiae,100.0%
same,MIC Range,Streptococcus agalactiae,0.12 to 1 µg/mL
same,MIC50,Streptococcus agalactiae; read-out: MIC50,0.25 µg/mL
same,MIC90,Streptococcus agalactiae; read-out: MIC90,0.25 µg/mL
same,% S,Klebsiella oxytoca,92.0%
same,MIC50,Klebsiella oxytoca,0.03 µg/mL
same,MIC90,Klebsiella oxytoca,0.5 µg/mL
same,MIC Range,Klebsiella oxytoca,0.015 to 8 µg/mL
same,% S,[1],98.0%
same,MIC Range,[1],0.06 to 2 µg/mL
same,MIC50,[1]; read-out: MIC50,0.12 µg/mL
same,MIC90,[1]; read-out: MIC90,0.25 µg/mL
same,% S,[2]; [14],50.0%
same,% S,[2]; [15],100.0%
same,MIC Range,[2]; [15],0.06-0.06 μg/mL
same,% S,"[2]; Staphylococcus epidermidis (MRSE, N = 9)",44.4%
same,% S,[2]; [16],83.3%
same,MIC Range,[2]; [16],0.06 to 1 µg/mL
same,% S,[2]; [17],60.0%
same,MIC90,[2]; [17],> 8 µg/mL
same,MIC50,"[2]; MRSE, Staphylococcus epidermidis (MRSE, N = 9)",1 µg/mL
same,MIC50,[2]; [14],1 µg/mL
same,MIC50,[2]; [15],0.06 µg/mL
same,MIC50,[2]; [16],0.06 µg/mL
same,MIC50,[2]; [17],0.06 µg/mL
same,% S,[3],100.0%
same,MIC50,[3],0.12 µg/mL
same,MIC90,[3],0.25 µg/mL
same,MIC Range,[3],0.03 to 0.25 µg/mL
same,% S,[4],73.3%
same,MIC50,[4],0.12 µg/mL
same,MIC90,[4],2 µg/mL
same,MIC Range,[4],0.03 to 8 µg/mL
same,MIC Range,Viridans streptococci,0.03 to 8 µg/mL
same,MIC50,Viridans streptococci; read-out: MIC50,0.25 µg/mL
same,MIC90,Viridans streptococci; read-out: MIC90,0.5 µg/mL
same,% S,Streptococcus pyogenes,100.0%
same,MIC Range,Streptococcus pyogenes,0.06 to 0.5 µg/mL
same,MIC50,Streptococcus pyogenes; read-out: MIC50,0.12 µg/mL
same,MIC90,Streptococcus pyogenes; read-out: MIC90,0.25 µg/mL
same,% S,[5],40.6%
same,MIC50,[5],2 µg/mL
same,MIC90,[5],8 µg/mL
same,% S,Staphylococcus warneri,76.0%
same,MIC50,Staphylococcus warneri,0.12 µg/mL
same,MIC90,Staphylococcus warneri,4 µg/mL
same,% S,Staphylococcus aureus; [18],6.3%
same,% S,Staphylococcus aureus; [19],92.9%
same,MIC Range,Staphylococcus aureus; [19],0.03 to 1 µg/mL
same,% S,"Staphylococcus aureus; Staphylococcus aureus (MRSA, N = 11)",18.2%
same,% S,"Staphylococcus aureus; Staphylococcus aureus (MSSA, N = 19)",63.2%
same,% S,Staphylococcus aureus; [20],46.7%
same,MIC50,Staphylococcus aureus; [21],2 µg/mL
same,MIC90,Staphylococcus aureus; [21],> 8 µg/mL
same,MIC50,Staphylococcus aureus; [22],0.06 µg/mL
same,MIC90,Staphylococcus aureus; [22],2 µg/mL
same,MIC50,Staphylococcus aureus; [18],2 µg/mL
same,MIC90,Staphylococcus aureus; [18],> 8 µg/mL
same,MIC50,Staphylococcus aureus; [19],0.06 µg/mL
same,MIC90,Staphylococcus aureus; [19],0.25 µg/mL
same,MIC50,Staphylococcus aureus; [20],1 µg/mL
same,MIC90,Staphylococcus aureus; [20],> 8 µg/mL
same,MIC50,Moraxella catarrhalis,0.015 µg/mL
same,MIC90,Moraxella catarrhalis,0.015 µg/mL
same,MIC Range,Moraxella catarrhalis,8 to 250 ng/mL
same,% S,Staphylococcus hominis,32.0%
same,MIC50,Staphylococcus hominis,1 µg/mL
same,MIC90,Staphylococcus hominis,4 µg/mL
